In brackets after ≈: the same amount, converted by molar mass. Several values for one entry are separate records, joined by “and”; a condition that tells them apart may be missing. Equal entries are not always repeated.
Key:
physchem [1] = conditions: pH 7.4 buffer
in vitro [2] = conditions: human
in vitro [3] = conditions: hepatocytes
in vitro [4] = conditions: human, hepatocytes
physchem [5] = assay: physchem
[6] = buffer, pH 7.4
physchem [7] = assay: physchem; remark: listed apart in the source
physchem [8] = assay: physchem; remark: listed apart in the source
in vitro [9] = conditions: human, plasma
in vitro [10] = conditions: SD, HW or BN, rat, plasma
in vitro [11] = conditions: Beagle, dog, plasma
physchem [12] = conditions: octan-1-ol/water
in vitro [13] = conditions: mouse, plasma
physchem [14] = assay: physchem; remark: listed apart in the source
in vitro [15] = conditions: Dunkin Hartley, guinea pig, plasma

CC/C(=C(/c1ccc(O)cc1)c1ccc(/C=C/C(=O)O)cc1)c1ccccc1
solubility thermodynamic (physchem [1]): 1 µM (≈ 0.37 µg/mL) | microsomal CLint (in vitro [2]; liver microsomes): 33.9 µL/min/mg | hepatocyte CLint (in vitro [3]): 69.2 µL/min/1e6 cells | hepatocyte CLint (in vitro [4]): 55 µL/min/1e6 cells | pKa (physchem [5]): 9.55

CCCc1c2nc(C(=O)O)cc(Cl)c2cc2c(=O)cc(C(=O)O)oc12
pKa (physchem [5]): 3.7

CCN(CC)c1ccc(-c2nn3c(-c4n[nH]c5c4CCC5)nnc3s2)cc1
LogD7.4 [6]: 3.37

CON=C(C(=O)N[C@@H]1C(=O)N2C(C(=O)O)=C(COC(C)=O)CS[C@H]12)c1csc(N)n1
pKa (physchem [7]): 2 | pKa (physchem [8]): 3.35 | pKa (physchem [5]): 9.43

O=C(O)c1cc(=O)c2ccc(O)cc2o1
pKa (physchem [8]): < 2 | pKa (physchem [5]): 7.3

CS(=O)(=O)c1ccc(-c2cc(C(F)(F)F)ccc2OCC(=O)O)cc1
LogD7.4 [6]: -0.87 | microsomal CLint (in vitro [2]; liver microsomes): < 3 µL/min/mg

CCS(=O)(=O)c1cccc(-c2cc(C(F)(F)F)ccc2OCC(=O)O)c1
LogD7.4 [6]: -0.66

Cc1cc(N(C)S(C)(=O)=O)ccc1-c1cc(C(F)(F)F)ccc1OCC(=O)O
LogD7.4 [6]: -0.59 | microsomal CLint (in vitro [2]; liver microsomes): < 3 µL/min/mg

CN(c1ccc(-c2cc(F)ccc2OCC(=O)O)c(Cl)c1)S(C)(=O)=O
LogD7.4 [6]: -1.17

CS(=O)(=O)c1ccc(-c2cc(C(F)(F)F)ccc2OCC(=O)O)c(Cl)c1
LogD7.4 [6]: -0.52 | fraction unbound at 5 h (in vitro [9]; PPB): 0.0418 | fraction unbound at 5 h (in vitro [10]): 0.0499

CCS(=O)(=O)c1ccc(-c2cc(Cl)ccc2OCC(=O)O)cc1
LogD7.4 [6]: -0.78 | fraction unbound at 5 h (in vitro [9]; PPB): 0.0274 | microsomal CLint (in vitro [2]; liver microsomes): < 3 µL/min/mg

CS(=O)(=O)c1ccc(-c2cc(Cl)ccc2OCC(=O)O)c(Cl)c1
LogD7.4 [6]: -0.75 | fraction unbound at 5 h (in vitro [9]; PPB): 0.0251 | fraction unbound at 5 h (in vitro [10]): 0.035

CCS(=O)(=O)c1ccc(-c2cc(Cl)ccc2OCC(=O)O)c(F)c1
LogD7.4 [6]: -0.92 | fraction unbound at 5 h (in vitro [9]; PPB): 0.0488 | fraction unbound at 5 h (in vitro [10]): 0.0568 | fraction unbound at 5 h (in vitro [11]): 0.0084 | microsomal CLint (in vitro [2]; microsomes): < 3 µL/min/mg | hepatocyte CLint (in vitro [3]): 4.24 µL/min/1e6 cells | hepatocyte CLint (in vitro [4]): < 3 µL/min/1e6 cells | pKa (physchem [8]): 3

CCS(=O)(=O)c1ccc(-c2cc(Cl)ccc2OCC(=O)O)c(C)c1
LogD7.4 [6]: -0.65

Cc1c(Sc2ccc(Cl)cc2)c2c(NS(C)(=O)=O)cccc2n1CC(=O)O
logD (physchem [12]; pH 7.4, LogD7.4): 0.21 | fraction unbound at 5 h (in vitro [9]; PPB): 0.0104 | fraction unbound at 5 h (in vitro [10]): 0.0031 | hepatocyte CLint (in vitro [3]): 5 µL/min/1e6 cells | hepatocyte CLint (in vitro [4]): 4.76 µL/min/1e6 cells | pKa (physchem [8]): 2.9 | pKa (physchem [5]): 10.2

Cc1c(S(=O)(=O)c2ccc(Cl)cc2)c2c(NS(C)(=O)=O)cccc2n1CC(=O)O
logD (physchem [12]; pH 7.4, LogD7.4): -0.83 | pKa (physchem [8]): 2.8 | pKa (physchem [5]): 9.8

O=c1[nH]c2c(O)ccc([C@@H](O)CNCCc3cccc(CN4CCCC4)c3)c2s1
LogD7.4 [6]: -0.28

O=C(O)c1cc(O)cc(Cl)c1
pKa (physchem [8]): 3.81 | pKa (physchem [5]): 8.57

N#Cc1ccc(C[C@@H](C(=O)O)N2CCC(CN3CCC(Oc4ccc(Cl)c(Cl)c4)CC3)CC2)cc1
pKa (physchem [7]): 8.9 | solubility thermodynamic (physchem [1]): 53.7 µM (≈ 27.7 µg/mL) | fraction unbound at 5 h (in vitro [9]; PPB): 0.0521 | fraction unbound at 5 h (in vitro [10]): 0.0968 | fraction unbound at 5 h (in vitro [11]): 0.166 | fraction unbound at 5 h (in vitro [13]): 0.197 | pKa (physchem [14]): 7

O=C(O)[C@H](Cc1ccccc1)N1CCC(CN2CCC(Oc3ccc(Cl)c(Cl)c3)CC2)CC1
pKa (physchem [7]): 9.25 | solubility thermodynamic (physchem [1]): 13.5 µM (≈ 6.63 µg/mL) | fraction unbound at 5 h (in vitro [10]): 0.183 | fraction unbound at 5 h (in vitro [11]): 0.11 | fraction unbound at 5 h (in vitro [13]): 0.154 | fraction unbound at 5 h (in vitro [15]): 0.58 | microsomal CLint (in vitro [2]; liver microsomes): < 3 µL/min/mg | pKa (physchem [14]): 7.75 | pKa (physchem [8]): 3.1

CCc1nc2cc(O)ccc2c(Oc2ccc(/C=C/C(=O)O)cc2)c1-c1ccccc1
pKa (physchem [7]): 5.51 | logD (physchem [12]; pH 7.4, LogD7.4): 3 | fraction unbound at 5 h (in vitro [9]; PPB): 0.0056 | pKa (physchem [8]): 4.34 | pKa (physchem [5]): 7.81

NCCc1ccc(O)c(O)c1F
pKa (physchem [7]): 8 | pKa (physchem [8]): 7.8 | pKa (physchem [5]): 10.3

NCCc1ccc(O)c2nc(O)ccc12
pKa (physchem [7]): 7.7 | pKa (physchem [8]): 7.6 | pKa (physchem [5]): 10.2

CC1(C)S[C@@H]2[C@H](NC(=O)[C@H](N)c3ccc(O)cc3)C(=O)N2[C@H]1C(=O)O [AMOXICILLIN]
pKa (physchem [7]): 7.52 | pKa (physchem [8]): 4.03 | pKa (physchem [5]): 9.77

O=C(O)CCCCCCCC(=O)O [AZELAIC ACID]
pKa (physchem [8]): 3.49 | pKa (physchem [5]): 5.87

CO[C@@]1(NC(=O)CSCC#N)C(=O)N2C(C(=O)O)=C(CSc3nnnn3C)CS[C@@H]21 [CEFMETAZOLE]
fraction unbound at 5 h (in vitro [9]; PPB): 0.194 | pKa (physchem [8]): 3.37 | pKa (physchem [5]): 10.2

NCc1ccccc1CC(=O)N[C@@H]1C(=O)N2C(C(=O)O)=C(CSc3nnnn3CC(=O)O)CS[C@H]12 [CEFORANIDE]
pKa (physchem [7]): 8.88 | pKa (physchem [8]): 2.01 | pKa (physchem [5]): 3.63

COc1cc(N)c(Cl)cc1C(=O)NC1CCN(CCCOc2ccc(F)cc2)CC1OC (stereo not given) [CISAPRIDE]
LogD7.4 [6]: 3.56

CN1CCC[C@@H]1CCO[C@](C)(c1ccccc1)c1ccc(Cl)cc1 [CLEMASTINE]
LogD7.4 [6]: 3.48 | logD (physchem [12]; pH 7.4, LogD7.4): 3.04

CC(C)/N=c1\cc2n(-c3ccc(Cl)cc3)c3ccccc3nc-2cc1Nc1ccc(Cl)cc1 [CLOFAZIMINE]
LogD7.4 [6]: 3.17 | pKa (physchem [7]): 8.8 | solubility thermodynamic (physchem [1]): 0.7 µM (≈ 0.331 µg/mL) | fraction unbound at 5 h (in vitro [10]): 0.0037

CN1CCN(C2=Nc3cc(Cl)ccc3Nc3ccccc32)CC1 [CLOZAPINE]
logD (physchem [12]; pH 7.4): 3.08 | fraction unbound at 5 h (in vitro [9]): 0.0521 | fraction unbound at 5 h (in vitro [10]): 0.0647 | fraction unbound at 5 h (in vitro [11]): 0.0736 | fraction unbound at 5 h (in vitro [15]): 0.0872 | pKa (physchem [14]): 3.99

O=C(O)c1cc(=O)c2c(OCC(O)COc3cccc4oc(C(=O)O)cc(=O)c34)cccc2o1 [CROMOLYN]
pKa (physchem [8]): < 2 | pKa (physchem [5]): < 2

O=c1c2ccccc2[se]n1-c1ccccc1 [EBSELEN]
LogD7.4 [6]: 3.31

Clc1ccc(COC(Cn2ccnc2)c2ccc(Cl)cc2Cl)cc1 (stereo not given) [ECONAZOLE]
LogD7.4 [6]: 2.54

CC(CCc1ccccc1)NCC(O)c1ccc(O)c(C(N)=O)c1 (stereo not given) [LABETALOL]
LogD7.4 [6]: 1.06 | fraction unbound at 5 h (in vitro [9]; PPB): 0.376

CCOC(=O)C1(c2ccccc2)CCN(C)CC1 [MEPERIDINE]
LogD7.4 [6]: 1.4

CCCc1c2nc(C(=O)O)cc(NC)c2cc2c(=O)cc(C(=O)O)oc12 [MINOCROMIL]
pKa (physchem [7]): 8.8 | pKa (physchem [8]): < 2 | pKa (physchem [5]): < 2

CCCc1c2oc(C(=O)O)cc(=O)c2cc2c(=O)cc(C(=O)O)n(CC)c12 [NEDOCROMIL]
pKa (physchem [8]): < 2 | pKa (physchem [5]): < 2

CC1(C)NC(=O)N(c2ccc([N+](=O)[O-])c(C(F)(F)F)c2)C1=O [NILUTAMIDE]
LogD7.4 [6]: 1.74 | solubility thermodynamic (physchem [1]): 234 µM (≈ 74.4 µg/mL)

CN1Cc2c(N)cccc2C(c2ccccc2)C1 (stereo not given) [NOMIFENSINE]
LogD7.4 [6]: 2.11 | logD (physchem [12]; pH 7.4, LogD7.4): 2.08

NC(=O)N1c2ccccc2CC(=O)c2ccccc21 [OXCARBAZEPINE]
LogD7.4 [6]: 1.28

CN1CCN(CCCN2c3ccccc3Sc3ccc(Cl)cc32)CC1 [PROCHLORPERAZINE]
LogD7.4 [6]: 3.92

O=C(NO)c1ccccc1O [SALICYLHYDROXAMIC ACID]
microsomal CLint (in vitro [2]; liver microsomes): < 3 µL/min/mg | pKa (physchem [8]): 7.5 | pKa (physchem [5]): 9.9

CC(C)(C)NC[C@H](O)COc1nsnc1N1CCOCC1 [TIMOLOL]
LogD7.4 [6]: -0.35 and -0.22 | fraction unbound at 5 h (in vitro [9]; PPB): 0.597 | hepatocyte CLint (in vitro [3]): > 150 µL/min/1e6 cells | hepatocyte CLint (in vitro [4]): 4.57 µL/min/1e6 cells

CN1CCN(CCCN2c3ccccc3Sc3ccc(C(F)(F)F)cc32)CC1 [TRIFLUOPERAZINE]
LogD7.4 [6]: 4.31 | fraction unbound at 5 h (in vitro [9]; PPB): 0.0081 | fraction unbound at 5 h (in vitro [10]): 0.007

CC(CN(C)C)CN1c2ccccc2CCc2ccccc21 (stereo not given) [TRIMIPRAMINE]
LogD7.4 [6]: 2.95 | fraction unbound at 5 h (in vitro [9]; PPB): 0.069
